Structures are written as SMILES.

For orientation: IC50 means the concentration that gives 50% inhibition. A lower IC50 goes with greater potency.

Sequence of ROCK2 (O75116 whole entry, species assumed): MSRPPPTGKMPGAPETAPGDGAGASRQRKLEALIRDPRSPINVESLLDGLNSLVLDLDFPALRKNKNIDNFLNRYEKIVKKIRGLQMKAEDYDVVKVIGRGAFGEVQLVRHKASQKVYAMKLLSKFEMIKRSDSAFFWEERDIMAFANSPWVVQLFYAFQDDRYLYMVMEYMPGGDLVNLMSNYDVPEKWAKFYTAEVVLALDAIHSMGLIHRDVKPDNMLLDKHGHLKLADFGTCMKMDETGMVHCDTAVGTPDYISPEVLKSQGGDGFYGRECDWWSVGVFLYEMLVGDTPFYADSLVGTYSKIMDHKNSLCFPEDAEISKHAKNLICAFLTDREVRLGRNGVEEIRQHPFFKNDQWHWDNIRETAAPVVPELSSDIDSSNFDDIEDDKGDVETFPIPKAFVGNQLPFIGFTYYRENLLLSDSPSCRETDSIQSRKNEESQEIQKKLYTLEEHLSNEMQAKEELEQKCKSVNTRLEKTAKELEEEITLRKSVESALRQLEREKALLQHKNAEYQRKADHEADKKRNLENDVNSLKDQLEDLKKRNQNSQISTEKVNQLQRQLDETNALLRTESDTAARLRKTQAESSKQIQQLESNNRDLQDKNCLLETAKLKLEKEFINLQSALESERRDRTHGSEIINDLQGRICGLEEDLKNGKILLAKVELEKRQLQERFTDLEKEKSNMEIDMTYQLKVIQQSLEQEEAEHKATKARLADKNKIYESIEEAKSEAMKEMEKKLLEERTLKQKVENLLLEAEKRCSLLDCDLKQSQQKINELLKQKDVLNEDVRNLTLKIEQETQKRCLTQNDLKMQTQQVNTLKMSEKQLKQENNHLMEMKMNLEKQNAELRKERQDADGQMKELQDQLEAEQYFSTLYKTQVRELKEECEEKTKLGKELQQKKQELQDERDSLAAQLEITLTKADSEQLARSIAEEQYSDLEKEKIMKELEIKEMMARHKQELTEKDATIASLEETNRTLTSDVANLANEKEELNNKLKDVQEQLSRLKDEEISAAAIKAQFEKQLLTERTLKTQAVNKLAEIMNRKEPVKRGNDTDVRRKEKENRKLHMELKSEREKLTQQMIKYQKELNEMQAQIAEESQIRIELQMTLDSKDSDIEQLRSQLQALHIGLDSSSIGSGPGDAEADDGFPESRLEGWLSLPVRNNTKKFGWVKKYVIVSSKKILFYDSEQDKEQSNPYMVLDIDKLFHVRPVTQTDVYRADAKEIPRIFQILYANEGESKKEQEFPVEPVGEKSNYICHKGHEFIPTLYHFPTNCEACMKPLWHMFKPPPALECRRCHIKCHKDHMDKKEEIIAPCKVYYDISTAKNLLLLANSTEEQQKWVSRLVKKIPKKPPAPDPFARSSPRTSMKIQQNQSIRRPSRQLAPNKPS

For the test, the target named is ROCK2 (Homo sapiens (Human), UniProt O75116). Kind of test: ROCK2 assay (peptide phosphorylation, LABCHIP 3000 Reader). The class given is biochemical. Particulars: 5 μM ATP, 1.5 μM peptide substrate. As to the method:
The effectiveness of compounds of the present invention as ROCK inhibitors can be determined in a 30 μL, assay containing 20 mM HEPES, pH 7.5, 20 mM MgCl2, 0.015% Brij-35, 4 mM DTT, 5 μM ATP and 1.5 μM peptide substrate (FITC-AHA-AKRRRLSSLRA-OH). Compounds were dissolved in DMSO so that the final concentration of DMSO was <2%, and the reaction was initiated with Rho kinase variants. After incubation, the reaction was terminated by the addition of EDTA and the phosphorylated and non-phosphorylated peptides separated using a LABCHIP® 3000 Reader (Caliper Life Sciences). […] Compounds were tested in dose-response format, and the inhibition of kinase activity was calculated at each concentration of compound. The inhibition data were fit using a curve-fitting program to determine the IC50; i.e., the concentration of compound required to inhibit 50% of kinase activity.
Representative Examples were tested in the ROCK2 assay described above and found having ROCK2 inhibitory activity.
`COc1cccc(Cn2ncn(-c3ccc(-c4cn[nH]c4)c(OC)c3)c2=O)c1` [Example 6, 4-(3-methoxy-4-(1H-pyrazol-4-yl)phenyl)-1-(3-methoxybenzyl)-1H-1,2,4-triazol-5(4H)-one]: the IC50 lay in the range of 5 to 50 nM.

With `Cc1nn(-c2ccc(-c3cn[nH]c3)cc2)c(=O)n1Cc1cc(F)ccc1F` [Example 82, 1-(4-(1H-pyrazol-4-yl)phenyl)-4-(2,5-difluorobenzyl)-3-methyl-1H-1,2,4-triazol-5(4H)-one], the IC50 is 5 to 50 nM.

In turn, `COc1cccc(Cn2c(CO)nn(-c3ccc(-c4cn[nH]c4)cc3)c2=O)c1` [Example 125, 1-(4-(1H-pyrazol-4-yl)phenyl)-3-(hydroxymethyl)-4-(3-methoxybenzyl)-1H-1,2,4-triazol-5(4H)-one] showed an IC50 of less than 5 nM.

Compound `CCc1cc(-n2ncn(C(C)c3ccccc3)c2=O)ccc1-c1cn[nH]c1` (stereo not drawn) [Example 58, 1-(3-ethyl-4-(1H-pyrazol-4-yl)phenyl)-4-(1-phenylethyl)-1H-1,2,4-triazol-5(4H)-one] had an IC50 of 5 to 50 nM.

Consider `COc1cc(-n2cnn(Cc3cccc(F)c3)c2=O)ccc1-c1cn[nH]c1` [Example 7, 1-(3-fluorobenzyl)-4-(3-methoxy-4-(1H-pyrazol-4-yl)phenyl)-1H-1,2,4-triazol-5(4H)-one], for which the IC50 was 50 to 250 nM.

Consider `COc1cccc(Cn2c(C)nn(-c3ccc(-c4cn[nH]c4)cc3)c2=O)c1F` [Example 122, 1-(4-(1H-pyrazol-4-yl)phenyl)-4-(2-fluoro-3-methoxybenzyl)-3-methyl-1H-1,2,4-triazol-5(4H)-one], for which the IC50 lay in the range of 250 to 2000 nM.

`COc1cc(-c2cn[nH]c2)ccc1-n1cnn(Cc2cc(F)ccc2F)c1=O` [Example 13, 1-(2,5-difluorobenzyl)-4-(2-methoxy-4-(1H-pyrazol-4-yl)phenyl)-1H-1,2,4-triazol-5(4H)-one] came in with an IC50 of 250 to 2000 nM.

For the compound `COc1cc(-n2ncn(Cc3cccc(C#N)c3)c2=O)ccc1-c1cn[nH]c1` [Example 35, 3-((1-(3-methoxy-4-(1H-pyrazol-4-yl)phenyl)-5-oxo-1H-1,2,4-triazol-4(5H)-yl)methyl)benzonitrile], the IC50 was in the range of 50 to 250 nM.

Compound `O=c1n(-c2ccc(-c3cn[nH]c3)cc2)nc(CO)n1Cc1cccc(F)c1` [Example 128, 1-(4-(1H-pyrazol-4-yl)phenyl)-4-(3-fluorobenzyl)-3-(hydroxymethyl)-1H-1,2,4-triazol-5(4H)-one] had an IC50 of 5 to 50 nM.

For the compound `COc1cc(Cn2cnn(-c3ccc(-c4cn[nH]c4)cc3)c2=O)ccc1F` [Example 50, 4-[(4-fluoro-3-methoxyphenyl)methyl]-1-[4-(1H-pyrazol-4-yl)phenyl]-4,5-dihydro-1H-1,2,4-triazol-5-one], the IC50 is less than 5 nM.

Regarding `O=c1n(Cc2ccccc2Cl)nnn1-c1ccc(-c2cn[nH]c2)cc1` [Example 177, 1-(4-(1H-pyrazol-4-yl)phenyl)-4-(2-chlorobenzyl)-1H-tetrazol-5(4H)-one], the IC50 was in the range of 50 to 250 nM.

With `O=c1n(Cc2c(F)cccc2F)cnn1-c1ccc(-c2cn[nH]c2)cc1` [Example 33, 1-(4-(1H-pyrazol-4-yl)phenyl)-4-(2,6-difluorobenzyl)-1H-1,2,4-triazol-5(4H)-one], the IC50 lay in the range of 5 to 50 nM.

For `COc1cc(-c2cn[nH]c2)ccc1-n1cnn(Cc2cc(F)ccc2F)c1=O` [Example 16, 1-(2,5-difluorobenzyl)-4-(2-methoxy-4-(1H-pyrazol-4-yl)phenyl)-1H-1,2,4-triazol-5(4H)-one], the IC50 lay in the range of 50 to 250 nM.

Regarding `COc1cccc(Cn2cnn(-c3ccc(-c4cn[nH]c4)c(OC)c3)c2=O)c1` [Example 24, 1-(3-methoxy-4-(1H-pyrazol-4-yl)phenyl)-4-(3-methoxybenzyl)-1H-1,2,4-triazol-5(4H)-one], the half-inhibitory concentration (IC50) was less than 5 nM.

In turn, `COc1ccc(F)cc1Cn1cnn(-c2ccc(-c3cn[nH]c3)cc2)c1=O` [Example 52, 1-(4-(1H-pyrazol-4-yl)phenyl)-4-(5-fluoro-2-methoxybenzyl)-1H-1,2,4-triazol-5(4H)-one] showed an IC50 of 250 to 2000 nM.

As to `O=c1n(-c2ccc(-c3cn[nH]c3)cc2)nc(CO)n1Cc1cccc(OC(F)F)c1` [Example 131, 1-(4-(1H-pyrazol-4-yl)phenyl)-4-(3-(difluoromethoxy)benzyl)-3-(hydroxymethyl)-1H-1,2,4-triazol-5(4H)-one], the IC50 was 5 to 50 nM.

`Cc1nn(-c2ccc(-c3cn[nH]c3)cc2)c(=O)n1Cc1cccc(OC(F)F)c1` [Example 102, 1-(4-(1H-pyrazol-4-yl)phenyl)-4-(3-(difluoromethoxy)benzyl)-3-methyl-1H-1,2,4-triazol-5(4H)-one]: the IC50 fell in the range of 50 to 250 nM.

Consider `COc1cc(-n2nc(C)n(Cc3cccc(OC(F)F)c3)c2=O)ccc1-c1cn[nH]c1` [Example 100, 4-(3-(difluoromethoxy)benzyl)-1-(3-methoxy-4-(1H-pyrazol-4-yl)phenyl)-3-methyl-1H-1,2,4-triazol-5(4H)-one], for which the IC50 lay within 5 to 50 nM.

In turn, `COc1cc(F)cc(Cn2c(C)nn(-c3ccc(-c4cn[nH]c4)c(OC)c3)c2=O)c1` [Example 92, 4-(3-fluoro-5-methoxybenzyl)-1-(3-methoxy-4-(1H-pyrazol-4-yl)phenyl)-3-methyl-1H-1,2,4-triazol-5(4H)-one] yielded an IC50 of less than 5 nM.

For `N#Cc1cccc(Cn2cnn(-c3ccc(-c4cn[nH]c4)cc3)c2=O)c1` [Example 34, 3-((1-(4-(1H-pyrazol-4-yl)phenyl)-5-oxo-1H-1,2,4-triazol-4(5H)-yl)methyl)benzonitrile], the IC50 lay in the range of 50 to 250 nM.

Take `COc1cccc(Cn2ncn(-c3ccc(-c4cn[nH]c4)cc3)c2=O)c1` [Example 3, 4-(4-(1H-pyrazol-4-yl)phenyl)-1-(3-methoxybenzyl)-1H-1,2,4-triazol-5(4H)-one]: the IC50 lay in the range of 50 to 250 nM.

On to `COc1cccc(Cn2ncn(-c3ccc(-c4cn[nH]c4)cc3OC)c2=O)c1` [Example 11, 4-(2-methoxy-4-(1H-pyrazol-4-yl)phenyl)-1-(3-methoxybenzyl)-1H-1,2,4-triazol-5(4H)-one], for which the IC50 fell in the range of 50 to 250 nM.

Turning to `Cc1nn(-c2ccc(-c3cn[nH]c3)cc2)c(=O)n1Cc1cccc(F)c1` [Example 81, 1-(4-(1H-pyrazol-4-yl)phenyl)-4-(3-fluorobenzyl)-3-methyl-1H-1,2,4-triazol-5(4H)-one], the 50% inhibitory concentration (IC50) was in the range of 5 to 50 nM.

`COc1cc(-n2c(C)nn(C(C)c3ccccc3)c2=O)ccc1-c1cn[nH]c1` (stereo not drawn) [Example 62, 4-(3-methoxy-4-(1H-pyrazol-4-yl)phenyl)-3-methyl-1-(1-phenylethyl)-1H-1,2,4-triazol-5(4H)-one]: the IC50 was in the range of 250 to 2000 nM.

`COc1ccc(F)cc1Cn1c(C)nn(-c2ccc(-c3cn[nH]c3)cc2)c1=O` [Example 123, 1-(4-(1H-pyrazol-4-yl)phenyl)-4-(5-fluoro-2-methoxybenzyl)-3-methyl-1H-1,2,4-triazol-5(4H)-one] came in with an IC50 of 50 to 250 nM.

As to `CC(C)(O)c1nn(-c2ccc(-c3cn[nH]c3)cc2)c(=O)n1Cc1c(F)cccc1F` [Example 138, 1-(4-(1H-pyrazol-4-yl)phenyl)-4-(2,6-difluorobenzyl)-3-(2-hydroxypropan-2-yl)-1H-1,2,4-triazol-5(4H)-one], the IC50 was 50 to 250 nM.

The compound `COc1cccc(C(C)n2cnn(-c3ccc(-c4cn[nH]c4)cc3)c2=O)c1` (single isomer, unassigned) [Example 47, 1-(4-(1H-pyrazol-4-yl)phenyl)-4-(1-(3-methoxyphenyl)ethyl)-1H-1,2,4-triazol-5(4H)-one] returned an IC50 of 5 to 50 nM.

The values above are taken from patent US10562887B2, “Triazolones and tetrazolones as inhibitors of ROCK” (BRISTOL-MYERS SQUIBB COMPANY, priority 2016, dated 2020).
